System: HUVECs
Test: Cord formation assay, HUVEC-eGFP co-cultured with human dermal fibroblasts
Assay type: cell-based
Conditions: VEGF 15 ng/mL, 6 days; 0.5 µM (Sunitinib 1 μM)
Protocol: The cord formation assay was performed according to the IncuCyte Angiogenesis PrimeKit Assay protocol (Cell Player Angiogenesis PrimeKit, Essen BioScience). In brief, GFP labeled HUVEC cells and human dermal fibroblasts were mixed in a 1:20 ratio and seeded per well in a 96-well plate (3150 cells in total). Thereafter, the cells were exposed to VEGF alone or in combination with the compounds (at indicated concentrations) in a complete assay medium. Pictures were captured every 6 h for up to 9 days To monitor the cord formation. The medium was refreshed every 2 or 3 days. Cords formation was visualized by the GFP fluorescence, and cord length was quantified with the instrument’s software. All the experiments were repeated at least three times, and representative experiments are shown.

CCN(CC)CCNC(=O)c1c(C)[nH]c(/C=C2\C(=O)Nc3ccc(F)cc32)c1C [Sunitinib, reference compound]
effect on VEGF-induced EC cord formation: strongly suppressed
